Experimental data as given in PubChem BioAssay (NCI).
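Results reflect a 48-hour exposure of cells in 96-well plates to compound at five concentrations. Abbreviation: GI50, concentration required for 50% inhibition of growth. TGI: concentration producing complete growth inhibition.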

Columns and labels:
Assay in all cases: NCI tumour cell line growth inhibition, 48 h
786-0 renal = test system: 786-0 renal
A498 renal = test system: A498 renal
A549 NSCLC = test system: A549 NSCLC
ACHN renal = test system: ACHN renal
BT-549 breast = test system: BT-549 breast
CAKI-1 renal = test system: CAKI-1 renal
CCRF-CEM leukemia = test system: CCRF-CEM leukemia
COLO 205 colon = test system: COLO 205 colon
DU-145 prostate = test system: DU-145 prostate
EKVX NSCLC = test system: EKVX NSCLC
HCC-2998 colon = test system: HCC-2998 colon
HCT-116 colon = test system: HCT-116 colon
HCT-15 colon = test system: HCT-15 colon
HL-60(TB) leukemia = test system: HL-60(TB) leukemia
HOP-62 NSCLC = test system: HOP-62 NSCLC
HOP-92 NSCLC = test system: HOP-92 NSCLC
HS 578T breast = test system: HS 578T breast
HT29 colon = test system: HT29 colon
IGROV1 ovarian = test system: IGROV1 ovarian
K-562 leukemia = test system: K-562 leukemia
KM12 colon = test system: KM12 colon
LOX IMVI melanoma = test system: LOX IMVI melanoma
M14 melanoma = test system: M14 melanoma
MALME-3M melanoma = test system: MALME-3M melanoma
MCF7 breast = test system: MCF7 breast
MDA-MB-231 breast = test system: MDA-MB-231 breast
MDA-MB-435 = test system: MDA-MB-435
MOLT-4 leukemia = test system: MOLT-4 leukemia
NCI-H226 lung = test system: NCI-H226 lung
NCI-H23 lung = test system: NCI-H23 lung
NCI-H460 lung = test system: NCI-H460 lung
NCI-H522 lung = test system: NCI-H522 lung
NCI/ADR-RES ovarian = test system: NCI/ADR-RES ovarian
OVCAR-3 ovarian = test system: OVCAR-3 ovarian
OVCAR-4 ovarian = test system: OVCAR-4 ovarian
OVCAR-5 ovarian = test system: OVCAR-5 ovarian
OVCAR-8 ovarian = test system: OVCAR-8 ovarian
PC-3 prostate = test system: PC-3 prostate
RPMI-8226 leukemia = test system: RPMI-8226 leukemia
RXF 393 renal = test system: RXF 393 renal
SF-268 CNS = test system: SF-268 CNS
SF-295 CNS = test system: SF-295 CNS
SF-539 CNS = test system: SF-539 CNS
SK-MEL-2 melanoma = test system: SK-MEL-2 melanoma
SK-MEL-28 melanoma = test system: SK-MEL-28 melanoma
SK-MEL-5 melanoma = test system: SK-MEL-5 melanoma
SK-OV-3 ovarian = test system: SK-OV-3 ovarian
SN12C renal = test system: SN12C renal
SNB-19 CNS = test system: SNB-19 CNS
SNB-75 CNS = test system: SNB-75 CNS
SW-620 colon = test system: SW-620 colon
T-47D breast = test system: T-47D breast
TK-10 renal = test system: TK-10 renal
U251 CNS = test system: U251 CNS
UACC-257 melanoma = test system: UACC-257 melanoma
UACC-62 melanoma = test system: UACC-62 melanoma
UO-31 renal = test system: UO-31 renal

Compound COc1cccc2c1C(=O)c1c(O)c3c(c(O)c1C2=O)C[C@@](O)(C(=O)CO)C[C@@H]3OC1CC(OC(C)=O)C(OC(C)=O)C(C)O1 (some centres not stated) has a GI50 (786-0 renal) of 0.272 µM, a TGI (786-0 renal) of 1.41 µM and a GI50 (A498 renal) of 0.127 µM. For the same compound, the TGI (A498 renal) was 1.62 µM, the GI50 (A549 NSCLC) was 0.41 µM and the TGI (A549 NSCLC) was 2.77 µM. The GI50 (ACHN renal) was 0.152 µM, the TGI (ACHN renal) was 1.44 µM and the GI50 (BT-549 breast) was 0.386 µM. It also gave a TGI (BT-549 breast) of 4.29 µM, a GI50 (CAKI-1 renal) of 0.18 µM and a TGI (CAKI-1 renal) of 1.44 µM. It also gave a GI50 (CCRF-CEM leukemia) of 0.0435 µM, a TGI (CCRF-CEM leukemia) of 0.764 µM and a GI50 (COLO 205 colon) of 0.801 µM. For the same compound, the TGI (COLO 205 colon) was 4.45 µM, the GI50 (DU-145 prostate) was 0.12 µM and the TGI (DU-145 prostate) was 0.719 µM. The GI50 (EKVX NSCLC) was 1.92 µM, the TGI (EKVX NSCLC) was 9.5 µM and the GI50 (HCC-2998 colon) was 1.28 µM. It also gave a TGI (HCC-2998 colon) of 3.19 µM, a GI50 (HCT-116 colon) of 0.279 µM and a TGI (HCT-116 colon) of 1.89 µM. The GI50 (HCT-15 colon) was 0.491 µM, the TGI (HCT-15 colon) was 6.75 µM and the GI50 (HL-60(TB) leukemia) was 0.235 µM. For the same compound, the GI50 (HOP-62 NSCLC) was 0.314 µM, the TGI (HOP-62 NSCLC) was 2.27 µM and the GI50 (HOP-92 NSCLC) was 0.239 µM. For the same compound, the TGI (HS 578T breast) was 4.14 µM, the GI50 (HT29 colon) was 1.02 µM and the TGI (HT29 colon) was > 32.1 µM. It also gave a TGI (IGROV1 ovarian) of 3.91 µM, a GI50 (K-562 leukemia) of 0.868 µM and a GI50 (KM12 colon) of 0.549 µM. For the same compound, the TGI (KM12 colon) was 3.74 µM, the GI50 (LOX IMVI melanoma) was 0.284 µM and the TGI (LOX IMVI melanoma) was > 20 µM. It also gave a GI50 (M14 melanoma) of 0.529 µM, a TGI (M14 melanoma) of 2.26 µM and a GI50 (MALME-3M melanoma) of 0.502 µM. For the same compound, the TGI (MALME-3M melanoma) was 2.19 µM, the GI50 (MCF7 breast) was < 0.0284 µM and the TGI (MCF7 breast) was 7.64 µM. For the same compound, the GI50 (MDA-MB-231 breast) was 2.89 µM, the TGI (MDA-MB-231 breast) was 15.6 µM and the GI50 (MDA-MB-435) was 1.27 µM. For the same compound, the TGI (MDA-MB-435) was 4.63 µM, the GI50 (MOLT-4 leukemia) was < 0.0282 µM and the GI50 (NCI-H226 lung) was 0.193 µM. For the same compound, the TGI (NCI-H226 lung) was 1.16 µM, the GI50 (NCI-H23 lung) was 0.227 µM and the TGI (NCI-H23 lung) was 1.5 µM. For the same compound, the GI50 (NCI-H460 lung) was < 0.0239 µM, the TGI (NCI-H460 lung) was 1.57 µM and the GI50 (NCI-H522 lung) was 0.578 µM. The TGI (NCI-H522 lung) was 3.36 µM, the GI50 (NCI/ADR-RES ovarian) was 0.552 µM and the GI50 (OVCAR-3 ovarian) was 0.965 µM. The TGI (OVCAR-3 ovarian) was 4.57 µM, the GI50 (OVCAR-4 ovarian) was 2.24 µM and the TGI (OVCAR-4 ovarian) was > 39.6 µM. The GI50 (OVCAR-5 ovarian) was 1.16 µM, the TGI (OVCAR-5 ovarian) was 5 µM and the GI50 (OVCAR-8 ovarian) was 0.479 µM. For the same compound, the TGI (OVCAR-8 ovarian) was > 58.1 µM, the GI50 (PC-3 prostate) was 1.48 µM and the TGI (PC-3 prostate) was > 23.3 µM. The GI50 (RPMI-8226 leukemia) was 0.226 µM, the TGI (RPMI-8226 leukemia) was 2.11 µM and the GI50 (RXF 393 renal) was 1.41 µM. For the same compound, the TGI (RXF 393 renal) was 3.72 µM, the GI50 (SF-268 CNS) was 0.287 µM and the TGI (SF-268 CNS) was 4.46 µM. The GI50 (SF-295 CNS) was 0.234 µM, the TGI (SF-295 CNS) was 1.25 µM and the GI50 (SF-539 CNS) was 0.267 µM. The TGI (SF-539 CNS) was 1.9 µM, the GI50 (SK-MEL-2 melanoma) was 1.87 µM and the TGI (SK-MEL-2 melanoma) was 4.95 µM. The GI50 (SK-MEL-28 melanoma) was 1.39 µM, the TGI (SK-MEL-28 melanoma) was 3.2 µM and the GI50 (SK-MEL-5 melanoma) was 0.249 µM. For the same compound, the TGI (SK-MEL-5 melanoma) was 1.67 µM, the GI50 (SK-OV-3 ovarian) was 0.83 µM and the TGI (SK-OV-3 ovarian) was 6.5 µM. For the same compound, the GI50 (SN12C renal) was 0.255 µM, the TGI (SN12C renal) was 5.87 µM and the GI50 (SNB-19 CNS) was 0.496 µM. For the same compound, the TGI (SNB-19 CNS) was > 100 µM, the GI50 (SNB-75 CNS) was 0.687 µM and the TGI (SNB-75 CNS) was 8.53 µM. The GI50 (SW-620 colon) was 0.277 µM, the TGI (SW-620 colon) was 3.45 µM and the GI50 (T-47D breast) was 0.237 µM. It also gave a TGI (T-47D breast) of 1.99 µM, a GI50 (TK-10 renal) of 0.985 µM and a TGI (TK-10 renal) of 6.43 µM. For the same compound, the GI50 (U251 CNS) was 0.275 µM, the TGI (U251 CNS) was 7.93 µM and the GI50 (UACC-257 melanoma) was 1.37 µM. For the same compound, the TGI (UACC-257 melanoma) was 4.25 µM, the GI50 (UACC-62 melanoma) was 0.23 µM and the TGI (UACC-62 melanoma) was 1.89 µM. The GI50 (UO-31 renal) was 0.258 µM and the TGI (UO-31 renal) was 1.99 µM.
